This is an account of results in PubChem BioAssay (NCI).

Common to all, as to assay: inhibition of tumour cell growth, NCI panel, 48 h
Test [1] has as its system OVCAR-8 ovarian.
In test [2] the test system is HS 578T breast.
Test [3] concerns OVCAR-4 ovarian.
The test system of test [4] is HOP-62 NSCLC.
The subject of test [5] is UO-31 renal.
Test [6] relates to EKVX NSCLC.
Test [7] deals with KM12 colon.
Test [8] relates to SF-268 CNS.
In test [9] the test system is SN12C renal.
In test [10] the test system is SK-OV-3 ovarian.

“And” between values parts separate entries of the source, which are not always exact repeats. Equal entries are not always repeated.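 Briefly, cells in 96-well plates were exposed to five compound concentrations for 48 h, and endpoints were estimated by linear interpolation. GI50: concentration for 50% inhibition of growth. Definition used: TGI = concentration required for complete inhibition of growth.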

Consider `COc1ccc([C@@]23Oc4cc(OC)cc(OC)c4[C@]2(O)[C@H](O)[C@H](C(N)=O)[C@H]3c2ccccc2)cc1`, for which the GI50 was less than 0.0122 µM in [1]; less than 0.0135 µM in test [2]; 14.2 nM in test [3]; less than 0.0113 µM in test [8]; less than 0.0113 µM in test [9]. Besides, the TGI in test [2] is 0.0914 µM and < 0.01 µM; in test [4], 0.216 µM and 0.0916 µM; in test [5], 0.0765 µM and 0.0995 µM; in test [6] it was 0.108 µM and 0.158 µM; in test [7] it was 0.0999 µM; in [8] it was 0.0913 µM and < 0.01 µM. In addition, in test [9], the TGI stood at 0.0751 µM.

For `CCN(CC)CCCC(C)N/C(=C1\C(=O)NC(=O)\C1=C(/NC(C)CCCN(CC)CC)c1cccc(OC)c1)c1cccc(OC)c1` (stereo unspecified), the GI50 in [1] was 0.515 µM; in test [10], 1.31 µM; in test [2] it was 1.11 µM; in test [3], 742 nM; in test [4], 0.815 µM; in [5], 0.733 µM. Besides, the GI50 in [7] is 0.835 µM; in [8], 1.03 µM; in test [9] it was 1.27 µM. The TGI in [1] was determined as 3.09 µM; in test [10] it was 3.92 µM; in test [2], 3.22 µM; in [3] it was 2.2 µM; in [4] it was 2.27 µM; in [5] it was 1.49 µM. Besides, the TGI in test [7] is 4.06 µM; in [8], 3.11 µM; in test [9] it was 7.03 µM.

For the compound `O=C(/C=C\c1cccc2ccccc12)c1ccc(Cl)cc1Cl`, the TGI in [1] was 37.3 µM; in test [10] it was more than 100 µM; in test [3] it was more than 100 µM; in [4] it was more than 100 µM; in test [5], more than 100 µM; in test [6] it was more than 100 µM. Also, the values for the TGI in test [7], in test [8] and in test [9] were 31 µM, 51.9 µM and more than 100 µM, respectively.

For `CC(=O)[CH-]C(=O)c1ccccc1.CC(=O)[CH-]C(=O)c1ccccc1.CC(=O)[CH-]C(=O)c1ccccc1.[Nd+3].[OH3+]`, the GI50 in test [1] is 27.2 µM; in [10], 31.7 µM; in [3], 93800 nM; in test [4], 31.9 µM; in test [5], more than 100 µM; in [6], 60.9 µM. Besides, the results for the GI50 in [7], in [8] and in test [9] were 13.4 µM, 41.3 µM and 42.3 µM, respectively. Besides, the TGI was more than 100 µM in [1]; 99 µM in [10]; more than 100 µM in [3]; more than 100 µM in test [4]; more than 100 µM in [5]; more than 100 µM in [6]. In addition, the TGI in test [7], in test [8] and in test [9] was more than 100 µM throughout.

As to `COC(=O)C1C(=O)O[C@@H](c2cc(OC)c(OC)cc2OC)C1C(=O)OC` (mixture of isomers), the TGI in [1], in [10], in test [3], in [4], in test [5] and in [6] was more than 100 µM in each case. In addition, the TGI in test [7], in test [8] and in test [9] was more than 100 µM each time.

Take `O=C(/C=C/c1cccc([N+](=O)[O-])c1)c1ccc([N+](=O)[O-])cc1`: the TGI in [1], in test [10], in test [3], in test [4], in [5] and in [6] was more than 100 µM each time. Also, the TGI in test [7], in test [8] and in test [9] was more than 100 µM in each case.

With `COC(=O)c1cc2c3ccccc3n3c2c(n1)-c1[nH]c2ccccc2c(=O)c1C3`, the GI50 is more than 100 µM in [1]; 19.6 µM in test [10]; 15.4 µM in [2]; more than 100000 nM in [3]; more than 100 µM in test [5]; 79 µM in [6]. The GI50 in test [7] was more than 100 µM; in test [8] it was 29.6 µM; in test [9] it was more than 100 µM. Also, the TGI in [1], in test [10], in test [2], in test [3], in test [5] and in test [6] was more than 100 µM in each case. The TGI in test [7], in [8] and in test [9] was more than 100 µM in each case.

Consider `CC(C)CCCCCCCCCCCCC(=O)NCC(=O)NC1C(O)C(O)C(Nc2ncnc3nc[nH]c23)OC1C(O)CO` (stereo unspecified), for which the GI50 in test [10] was 0.005 µM; in test [3], less than 0.01 nM; in test [4], less than 1e-05 µM; in test [5], 0.005 µM; in test [9], 0.00574 µM and 0.005 µM. Further, the TGI in [10] was 0.00344 µM and 0.0224 µM; in test [2] it was 0.446 µM; in [5] it was 0.00451 µM and 0.0075 µM; in [6], 0.0228 µM and 0.0578 µM and 0.0199 µM; in test [7], 0.0479 µM and 0.0235 µM; in test [9] it was 0.0729 µM and 0.0145 µM.

For the compound `O=C(O)C1[O][Sb][O]C(C(=O)O)C1O` (stereo unspecified), the GI50 in test [1] is more than 100 µM; in test [2], more than 100 µM; in test [3], more than 100000 nM; in test [4] it was more than 100 µM; in test [5], more than 100 µM; in test [6] it was more than 100 µM. The GI50 in test [7], in test [8] and in test [9] was more than 100 µM each time. For the same compound, the TGI in test [1], in test [2], in [3], in test [4], in [5] and in test [6] was more than 100 µM in each case. Further, the TGI in test [7], in test [8] and in test [9] was more than 100 µM each time.

`NC1=NN(c2ccccc2)C(=O)C1C(=O)C(=O)Nc1ccc(Cl)c(Cl)c1` (stereo unspecified): the TGI in test [1], in test [10], in test [3], in test [4], in test [5] and in [6] was more than 100 µM throughout. The TGI in [7], in [8] and in [9] was more than 100 µM each time.
